Measured values from patent publication US5567704A, “R-enatiomerically pure hydroxylated xanthine compounds to treat baldness” (priority 1995, dated 1996).

Legend:
murine B-cell = assay: B-cell proliferation stimulated by anti-mu antibody and/or IL-4; format: cell-based; details: anti-mu antibody crosslinked and/or IL-4, FIG. 2
Protocol: A B-cell proliferation assay determines the effect of the inventive compounds on inhibiting proliferation of stimulated B-cells, stimulated by an anti-mu antibody (40 μg/ml), IL-4 or PMA (2.5 nM). Ramos B-cell tumor cells or murine splenocytes can be incubated with a stimulating agent, an inventive compound and tritiated thymidine to measure inhibition of cell proliferation caused by the stimulating agent.

[1] = tested on: TNF-α release from LPS stimulated PEC cells; assay: TNF-α release from LPS stimulated PEC macrophages (ELISA); format: cell-based, murine; details: Mus musculus, Macrophage
Protocol: Murine peritoneal exudate cell macrophages (PEC) were isolated by perfusion of mouse peritoneum and plated into 96-well trays at 5×10^5 cells per well. […] At various times thereafter, supernatants were removed and levels of either TNF-α or IL-1α were assayed using commercial 96-well microtiter immunoassay kits (Genzyme; TNF; Endogen, Boston, Mass.; IL-1α) according to manufacturer's specifications. […] 4000 cells were plated into each well of a 96-well microtiter plate and allowed to incubate for 72 hrs at 37° C. […] Either the HUVEC or U937 cells were stimulated with either LPS, IL-1α or TNF-α for 12 hrs. For the adhesion assay, U937 cells were labeled with the fluorescent viability stain, 2',7'-bis-(2-carboxyethyl)-5-(and-6)-carboxyfluorescein acetoxymethyl ester (BCECF). […] The cells were washed once with full media and 50,000 cells/well added to the HUVEC cultures. The samples were incubated at 37° C. for 30 min, inverted and centrifuged for 10 min at 400× g. After addition of […] Hanks Balanced Salt Solution (HBSS), the microtiter plate was then analyzed on a Millipore Cytofluor fluorescent plate reader (excitation 488 nm; emission 525 nm).
Cells were pretreated with […] CT1501R and supernatants assayed by ELISA for released TNF-α as a function of time following LPS stimulation. […]

IL-1α = assay: mouse plasma IL-1α ELISA after endotoxin; format: in vivo; details: for Plasma IL-1: LPS + CT-1501R
Protocol: (§1) For ELISA measurements of cytokine levels in plasma, blood was collected by retro-orbital or cardiac puncture of anesthetized mice, immediately centrifuged and the EDTA plasma stored at -70° C. Particulate free plasma was thawed on ice and cytokine levels determined utilizing commercial ELISA assays with normal mouse plasma used to generate standard curves. Murine tumor necrosis factor-α and interleukin-1αkits were purchased from Genzyme (Cambridge, Mass.) and Endogen (Boston, Mass.), respectively. Each data point was an average of two ELISA measurements made from EDTA […] pooled from three mice. The data summarized in Table 3 were compiled from two independent experiments; data from Table 4 and 5 were from single experiments of three mice per data point.
(§2) In particular, peak levels observed at 6, 12 and 18 hours post endotoxin were decreased 1.2, 4.3 and 3.2-fold, respectively. Finally, IL-6 measurements were made in a similar manner (Table 6, FIG. 8).

IL-6 = assay: mouse plasma IL-6 ELISA after endotoxin; format: in vivo; details: for Plasma IL-6: LPS + CT-1501R
Protocol: as §1, §2

Balb/C mice = assay: 5-fluorouracil (5-FU) induced bone marrow suppression in mice; format: in vivo, mouse
Protocol: This example illustrates the effect of CT1501R on 5-fluorouracil (5-FU) induced bone marrow suppression in mice. We determined if CT1501R influenced the time required for hematopoietic reconstitution following cytotoxic chemotherapy in a murine model. Female Balb/C mice (VAF, Charles River Laboratories, 6-8 wks of age approximately 17.3-18.5 g) were treated with 5-FU at adose of 200 mg/kg intraperitoneally (i.p.) in experiment 1 or […] in experiment 2. CT1501R or vehicle control was given at a dose of 100 μg/kg i.p. bid starting 1 day prior to 5-FU and was continued until the last mice were sacrificed on day 13 in experiment 1 and day 15 in experiment 2. Controls included mice treated with CT1501R or vehicle without 5-FU. Mice (4 per group) were sacrificed starting 2 days after 5-FU by cardiac puncture under halothane anesthesia followed by cervical dislocation and had total white blood cell counts and differential counts performed. Platelet counts were performed using phase-contrast microscopy in duplicate. Femurs were harvested and the number of granulocyte-macrophage colony forming cells (CFU-GM) per femur were measured using a standard assay (Terry Fox Laboratories, Vancouver, British Columbia) using pokeweed mitogen spleen conditioned medium as the growth factor. Each femur was plated separately in triplicate and the mean and means for each experimental point was calculated. Standard deviations used for statistical analysis were deviations of the mean number of colonies measured for each femur.
Experiment 2 was similar to experiment 1 with the following exceptions: (1) the dose of 5-FU was decreased to 185 mg/kg; (2) daily blood draws were performed between days 10 and 15; and (3) platelet counts were performed.

Compound: C[C@@H](O)CCCCn1c(=O)c2c(ncn2C)n(C)c1=O [CT1501R, (R)-1-(5-hydroxyhexyl)-3,7-dimethylxanthine]
- inhibition of B-cell proliferation (murine B-cell): inhibited B-cell proliferation
- IC50 ([1]; LPS stimulated PEC, drug 1 hour before LPS, FIG. 18, read-out: concentration for 50% inhibition of TNF-α release (IC50)): ~30 µM
- inhibition at 500 µM ([1]; at 500 μM, read-out: inhibitory effects, % of the maximal LPS stimulation (1428 pg/ml)): ~40%
- fold decrease of plasma IL-1α (IL-1α; 6 hours post endotoxin): 1.2 fold
- fold decrease of plasma IL-1α (IL-1α; 12 hours post endotoxin): 4.3 fold
- fold decrease of plasma IL-1α (IL-1α; 18 hours post endotoxin): 3.2 fold
- Plasma IL-1 (IL-1α; 0 hours post LPS): 0 pg/mL
- Plasma IL-1 (IL-1α; 0.17 hours post LPS): 0 pg/mL
- Plasma IL-1 (IL-1α; 0.5 hours post LPS): 22 pg/mL
- Plasma IL-1 (IL-1α; 1 hour post LPS): 10.8 pg/mL
- Plasma IL-1 (IL-1α; 3 hours post LPS): 33.2 pg/mL
- Plasma IL-1 (IL-1α; 6 hours post LPS): 133 pg/mL
- Plasma IL-1 (IL-1α; 12 hours post LPS): 32.3 pg/mL
- Plasma IL-1 (IL-1α; 18 hours post LPS): 46.7 pg/mL
- Plasma IL-1 (IL-1α; 24 hours post LPS): 43.5 pg/mL
- Plasma IL-1 (IL-1α; 36 hours post LPS): 18.8 pg/mL
- Plasma IL-1 (IL-1α; 48 hours post LPS): 0 pg/mL
- fold decrease of plasma IL-6 (IL-6; 3 hours post endotoxin): 1.7 fold
- fold decrease of plasma IL-6 (IL-6; 6 hours post endotoxin): 2.0 fold
- fold decrease of plasma IL-6 (IL-6; 12 hours post endotoxin): 4.1 fold
- Plasma IL-6 (IL-6; 0 hours post LPS): 0 ng/mL
- Plasma IL-6 (IL-6; 0.17 hours post LPS): 0.14 ng/mL
- Plasma IL-6 (IL-6; 0.5 hours post LPS): 1 ng/mL
- Plasma IL-6 (IL-6; 1 hour post LPS): 31.8 ng/mL
- Plasma IL-6 (IL-6; 3 hours post LPS): 183 ng/mL
- Plasma IL-6 (IL-6; 6 hours post LPS): 121 ng/mL
- Plasma IL-6 (IL-6; 12 hours post LPS): 29.6 ng/mL
- Plasma IL-6 (IL-6; 18 hours post LPS): 19.8 ng/mL
- Plasma IL-6 (IL-6; 24 hours post LPS): 25.6 ng/mL
- Plasma IL-6 (IL-6; 36 hours post LPS): 1.64 ng/mL
- Plasma IL-6 (IL-6; 48 hours post LPS): 0.4 ng/mL
- mouse survival, Kaplan-Meier plot (Balb/C mice; 5-FU treated mice, FIG. 14): improved survival
- rise in ANC and CFU-GM/femur associated with vehicle injections (Balb/C mice; animals that did not receive 5-FU): prevented both the rise in ANC and rise in CFU-GM/femur
- increase in the number of CFU-GM/femur compared to control animals (Balb/C mice; during hematopoietic recovery): approximately two-fold
- CFU-GM/femur (Balb/C mice; experiment 1, day 13, vs vehicle control and day 0 animals): significantly more CFU-GM/femur on day 13
- mean ±SD ANC (Balb/C mice; experiment 1, day 13 after 5-FU): 440±17 /mm^3
- WBC of 5-FU treated mice (Balb/C mice; experiment 1, days 6 and 10): significantly lower in vehicle treated controls than in CT1501R treated mice
- number of cells per femur (Balb/C mice; experiment 2): increased during hematopoietic recovery compared to control animals
- WBC (Balb/C mice; experiment 2, FIG. 10): significantly higher WBC's
- platelet count nadir and rate of recovery (Balb/C mice; experiment 2, FIG. 11): increased compared to vehicle control animals
- neutrophil recovery (Balb/C mice; experiment 2, FIG. 12): accelerated
- WBC and ANC (Balb/C mice; mice without 5-FU, i.p. bid): remained within 1 SD of control values
- adverse effects (Balb/C mice; mice without 5-FU, i.p. bid): no apparent adverse effects
